Assay results: patent publication US20130324405A1, “NEW ANTIFUNGAL COMPOSITIONS” (DSM IP ASSETS B.V., priority 2011, published 2013)
Values joined by “and” are separate entries in the source; they are usually repeats but may differ in a detail not shown here. Equal entries are not always repeated.

Columns and labels:
Fusarium proliferatum [1] = experiment: In vitro antifungal activity, 96-well microtiter plates; format: cell-based; settings: 5 days at 25° C.
Protocol: Subsequently, 100 μl of a Botrytis cinerea suspension prepared in PCB medium was used to inoculated each well with 2.5×10^3spores/ml.
After incubation of the microtiter plates for 7 at 25° C., the in vitro antifungal activity (%) of the individual active ingredients was assessed by calculating the reduction in mould growth observed in the presence of the active ingredient in comparison to the mould growth observed in the absence of the active ingredient. The expected antifungal activity (E in %) of the active ingredient combination was calculated according to the Colby equation (Colby, 1967): […]
wherein X and Y are the observed antifungal activities (in %) of the individual active ingredients X and Y, respectively. If the observed antifungal activity (O in %) of the combination exceeds the expected antifungal activity (E in %) of the combination and the resulting synergy factor O/E is thus >1.0, the combined application of the active ingredients leads to a synergistic antifungal effect.
Furthermore, Fusarium proliferatum was used for inoculation.

Botrytis cinerea [2] = experiment: as above; format: cell-based; settings: 0.63 ppm natamycin, 25 ppm cyazofamid, 50 ppm fenamidone, or natamycin plus one of these, 7 days at 25° C.
Protocol: Subsequently, 100 μl of a Botrytis cinerea suspension prepared in PCB medium was used to inoculated each well with 2.5×10^3spores/ml. […] The expected antifungal activity (E in %) of the active ingredient combination was calculated according to the Colby equation (Colby, 1967): […] wherein X and Y are the observed antifungal activities (in %) of the individual active ingredients X and Y, respectively.

Fusarium proliferatum [3] = experiment: Treatment of wounded, inoculated bananas with antifungal compositions (mould growth); format: in vivo
Protocol: Four organic, unripe (green) bananas were used per treatment. The peel of each banana was wounded thrice using a cork borer according to the method described by de Lapeyre de Bellaire and Dubois (1987). Subsequently, each wound was inoculated with 15 μl of a Fusarium proliferatum suspension containing 1×10^5 of spores/ml. […] In addition, the antifungal compositions comprised 1.00% (w/w) methylhydroxyethylcellulose (MHEC), 0.40% (w/w) xanthan gum, 0.20% (w/w) anti-foaming agent, 0.30% (w/w) citric acid, 0.39% (w/w) lactic acid and 0.11% (w/w) potassium sorbate. The pH of the composition was 4.
The treated, unripe bananas were incubated in a closed box in the dark at 20° C. and a relative air humidity of 95%, which was obtained in the presence of a saturated Na2HPO4 aqueous solution. A ripe (yellow) banana was included in the closed box to elevate the ethylene gas level and thus induce ripening of the treated, unripe bananas.
The expected antifungal activity (E in %) of the combined antifungal composition comprising both active ingredients was calculated according to the Colby equation (Colby, 1967): […]
(§1) wherein X and Y are the observed antifungal activities (in %) of the individual active ingredients X and Y, respectively. If the observed antifungal activity (O in %) of the combination exceeds the expected antifungal activity (E in %) of the combination and the synergy factor O/E is thus >1.0, the combined application of the active ingredients leads to a synergistic antifungal effect.

Botrytis cinerea [4] = experiment: Treatment of wounded, inoculated strawberries by dipping in antifungal compositions (mould growth); format: in vivo; settings: for Observed antifungal activity O (%): strawberries
Protocol: Twelve fresh, organic strawberries were used per treatment. Each strawberry was wounded with a 0.5 mm long cut and each wound was inoculated with 10 μl of a Botrytis cinerea suspension containing 1×10^5 of spores/ml. […] The antifungal composition also comprised 1.00% (w/w) methylhydroxyethylcellulose (MHEC), 0.40% (w/w) xanthan gum, 0.20% (w/w) anti-foaming agent, 0.30% (w/w) citric acid, 0.39% (w/w) lactic acid and 0.11% (w/w) potassium sorbate. The pH of the composition was 4.
The treated strawberries were incubated in a closed box in the dark at 20° C. […]. […] The expected antifungal activity (E in %) of the combined antifungal composition comprising both active ingredients was calculated according to the Colby equation (Colby, 1967): […]
as §1
The treated strawberries were assessed on mould growth after 3, 4, 5, 7, 8 and 9 days of incubation according to the two methods described in Example 6.

[5] = 2.5 ppm natamycin, 50 ppm cyazofamid or both
[6] = 250 ppm natamycin, 500 ppm cyazofamid or both, 27 days at 20° C.
[7] = 500 ppm natamycin, 2000 ppm cyazofamid or both, 21 days at 20° C.
[8] = 500 ppm natamycin, 2000 ppm cyazofamid or both, 23 days at 20° C.
[9] = 500 ppm natamycin, 2000 ppm cyazofamid or both, 24 days at 20° C.
[10] = 50 ppm natamycin, 250 ppm fenamidone or both, Day 3 at 20° C.
[11] = 50 ppm natamycin, 250 ppm fenamidone or both, Day 4 at 20° C.
[12] = 50 ppm natamycin, 250 ppm fenamidone or both, Day 5 at 20° C.
[13] = 500 ppm natamycin, 1000 ppm fenamidone or both, Day 3 at 20° C.
[14] = 500 ppm natamycin, 1000 ppm fenamidone or both, Day 5 at 20° C.
[15] = 50 ppm natamycin, 250 ppm fenamidone or both, 3 days at 20° C.
[16] = 50 ppm natamycin, 250 ppm fenamidone or both, 4 days at 20° C.
[17] = 50 ppm natamycin, 250 ppm fenamidone or both, 5 days at 20° C.
[18] = 50 ppm natamycin, 250 ppm fenamidone or both, 7 days at 20° C.
[19] = 50 ppm natamycin, 250 ppm fenamidone or both, 8 days at 20° C.
[20] = 50 ppm natamycin, 250 ppm fenamidone or both, 9 days at 20° C.
[21] = 500 ppm natamycin, 1000 ppm fenamidone or both, 3 days at 20° C.
[22] = 500 ppm natamycin, 1000 ppm fenamidone or both, 4 days at 20° C.
[23] = 500 ppm natamycin, 1000 ppm fenamidone or both, 5 days at 20° C.
[24] = 500 ppm natamycin, 1000 ppm fenamidone or both, 7 days at 20° C.
[25] = 500 ppm natamycin, 1000 ppm fenamidone or both, 8 days at 20° C.
[26] = 500 ppm natamycin, 1000 ppm fenamidone or both, 9 days at 20° C.

Structure (SMILES) | Observed antifungal activity O (%) (Fusarium proliferatum [1]; [5]) | Observed antifungal activity O (%) (Botrytis cinerea [2]) | Observed antifungal activity O (%) (Fusarium proliferatum [3]; [6]) | Observed antifungal activity O (%) (Fusarium proliferatum [3]; [7]) | Observed antifungal activity O (%) (Fusarium proliferatum [3]; [8]) | Observed antifungal activity O (%) (Fusarium proliferatum [3]; [9]) | Number of moulded strawberries/total number of 12 strawberries (Botrytis cinerea [4]; [10]) | Number of moulded strawberries/total number of 12 strawberries (Botrytis cinerea [4]; [11]) | Number of moulded strawberries/total number of 12 strawberries (Botrytis cinerea [4]; [12]) | Number of moulded strawberries/total number of 12 strawberries (Botrytis cinerea [4]; [13]) | Number of moulded strawberries/total number of 12 strawberries (Botrytis cinerea [4]; [14]) | Observed antifungal activity O (%) (Botrytis cinerea [4]; [15]) | Observed antifungal activity O (%) (Botrytis cinerea [4]; [16]) | Observed antifungal activity O (%) (Botrytis cinerea [4]; [17]) | Observed antifungal activity O (%) (Botrytis cinerea [4]; [18]) | Observed antifungal activity O (%) (Botrytis cinerea [4]; [19]) | Observed antifungal activity O (%) (Botrytis cinerea [4]; [20]) | Observed antifungal activity O (%) (Botrytis cinerea [4]; [21]) | Observed antifungal activity O (%) (Botrytis cinerea [4]; [22]) | Observed antifungal activity O (%) (Botrytis cinerea [4]; [23]) | also measured
Cc1ccc(-c2c(Cl)nc(C#N)n2S(=O)(=O)N(C)C)cc1 [Cyazofamid, cyazofamid] | 0% | 0% | 1% | 0% | 0% | 0% | – | – | – | – | – | – | – | – | – | – | – | – | – | – | Observed antifungal activity O (%) (Fusarium proliferatum [1]; 75 ppm cyazofamid alone or with 2.5 ppm natamycin): 0%; Observed antifungal activity O (%) (Fusarium proliferatum [3]; 50 ppm natamycin, 250 ppm cyazofamid or both, 27 days at 20° C.): 0%
CSC1=N[C@@](C)(c2ccccc2)C(=O)N1Nc1ccccc1 [Fenamidone, fenamidone] | – | 0% | – | – | – | – | 12 and 12/12 | 12 and 12/12 | 12 and 12/12 | 12 and 12/12 | 12 and 12/12 | 0% | 0% | 0% | 0% | 0% | 0% | 9% | 0% | 0% | Observed antifungal activity O (%) (Botrytis cinerea [4]; [24]): 0%; Observed antifungal activity O (%) (Botrytis cinerea [4]; [25]): 0%; Observed antifungal activity O (%) (Botrytis cinerea [4]; [26]): 0%
C[C@@H]1C/C=C/C=C/C=C/C=C/[C@H](O[C@@H]2O[C@H](C)[C@@H](O)[C@H](N)[C@@H]2O)C[C@@H]2O[C@](O)(C[C@@H](O)C[C@H]3O[C@@H]3/C=C/C(=O)O1)C[C@H](O)[C@H]2C(=O)O [Natamycin, natamycin] | 0% | 0% | 4% | 94% | 86% | 84% | 3 and 3/12 | 5 and 5/12 | 10 and 10/12 | 3 and 3/12 | 11 and 11/12 | 64% | 50% | 17% | 17% | 10% | 0% | 75% | 69% | 31% | Observed antifungal activity O (%) (Botrytis cinerea [4]; [24]): 13%; Observed antifungal activity O (%) (Botrytis cinerea [4]; [25]): 0%; Observed antifungal activity O (%) (Botrytis cinerea [4]; [26]): 0%
